Tests used:
[1] = Alcoholysis of 2′-acyl group followed by analytical HPLC (Examples 1-4); assay type: physicochemical
Excerpt: As part of research to better understand the interaction of PAC-related compounds with various components within cancer cells,^11,12 the inventors deployed CAC protection of both PAC and 10-deacetylpaclitaxel (DAP) (FIG. 4). During purification of various mixtures of the three predominate CAC derivatives obtained for DAP, namely the 2′-mono-, the 2′,7-bis- and the 2′,7,10-tri-CAC protected materials, the 2′-adducts appeared to be unstable when allowed to stand for prolonged periods in methanol. Testing purified materials on a 1 mg scale confirmed this observation. Moving to a larger sample, a 40 mL solution of 2′,7-bis-CAC-DAP was then examined at a concentration of 1 mg/mL. Methanolysis of the 2′-adduct was complete after 48 hours at ambient temperature. The exclusive product was isolated by evaporation of solvent, washed with cold water, and its structure characterized as 7-mono-CAC-DAP according to NMR (FIG. 5-Table 2) and elemental analysis. […] In this case the structural integrity for the latter was additionally confirmed by its independent synthesis analogous to a literature procedure^4 wherein after treatment of PAC with chloroacetic anhydride in pyridine, the reaction mixture was subjected to 10 mM ammonia at room temperature for 1 hour prior to preparative HPLC separation of the resulting mixture of esters.
7-Monochloroacetyl-10-deactylpaclitaxel (7-CAC-DAP) (2). 2′,7-bis-CAC-DAP (1) (30 mg, 0.031 mmol) was dissolved in 40 mL of methanol (HPLC grade) and left at ambient temperature. 20 μL samples were withdrawn at several hour intervals and analyzed directly by HPLC. The conversion was complete in 48 hrs. Solvent was evaporated to dryness leaving a glossy residue which crystallized upon addition of water. Yield: 25 mg (0.028 mmol) having 97% purity by HPLC; mp 163-166° C.; Analytical HPLC RT=24 min. (Discovery column); Elemental Analysis calculated for formula C47H50ClNO14: C, 63.55%; H, 5.67%; N, 1.58%. Found: C, 63.08%; H, 5.97%; N, 1.63%.
7-Monochloroacetylpaclitaxel (7-CAC-PAC) (4). 1 mg of 2′,7-bis-CAC-PAC (3) was dissolved in 1 mL of methanol and the solution left at ambient temperature. 20 μL samples were withdrawn at several hour intervals and directly analyzed by HPLC. The conversion was complete in 48 hours. […] (Discovery column); Elemental Analysis calculated for formula C49H52Cl NO15: C, 63.26%; H, 5.63%; N, 1.51%. […]
7-Methoxyacetylpaclitaxel (7-MAC-PAC) (5). […] Samples (20 μl) were withdrawn at several hour intervals and analyzed directly by HPLC. […] (Suplecosil column); Elemental analysis calculated for C50 H55 NO16.H2O: C, 63.36%; H, 6.09%; N, 1.48%. […]

[2] = Stability of PAC and DAP CAC analogs in methanol at ambient temperature (HPLC decay curve); assay type: physicochemical
Experimental: During development of an HPLC method to purify 2′,7-bis-monochloroacetyl-10-deacetylpaclitaxel (2′,7-bis-CAC-DAP), the inventors discovered that the compound was unstable in methanol solution at a concentration of 1 mg/ml. […] Thus, we decided to further investigate the apparent differences in the stability of several PAC and DAP CAC esters relative to concentration and acidity.
Compound abbreviations are provided in FIG. 2-Table 1 according to the nomenclature and numbering specified in FIG. 1. RT=Retention times on an analytical HPLC (Waters) equipped with a reversed-phase column (Supleco Discovery C18) using a gradient elution (60% acetonitrile from 0-2 min., linearly ramped from 60% to 75% from 2-12 min., and held steady at 75% for the duration of the assay) at a flow rate of 1.2 ml/min. monitored by UV detection (225 nm). NMR (CDCl3) values for the C2′ proton shifts are in ppm relative to TMS. T1/2=Apparent half-lives. All compounds were independently prepared and characterized by HPLC, NMR and elemental analyses. ^†Previously reported by Rao et al. ^††Previously reported by Rimoldi et al.^21 *Less than 5% breakdown after 72 hr.
A 1 mg/ml solution of 2′,7-bis-CAC-DAP in methanol was allowed to stand at ambient temperature. 20 μl samples were withdrawn at T=0, 2, 24 and 48 hrs. Longer incubations were deployed for compounds showing little breakdown. Aliquots were assayed directly by HPLC after establishing that responses obtained for serial dilutions of a freshly prepared 10 mg/ml stock solution of 2′,7-bis-CAC-DAP were linear throughout the concentration range anticipated for the samples. A decay curve was generated by following the decrease in compound peak area versus time. An apparent half-life (T1/2) was then calculated from a semi-log plot using Microsoft Excel. The decay curve for 2′,7-bis-CAC-DAP appears to follow pseudo first-order kinetics typical for solvolysis reactions. The T1/2 value for conversion to 7-CAC-DAP is 5.5 hrs. The product growth curve matches very closely with the compound decay curve. Similar results were obtained for all of the other 2′-chloroacetylated derivatives listed in FIG. 2-Table 1 except for 2′ CAC-DAP whose T1/2 appears to be about three-times longer (18 hrs.). Nevertheless, this derivative is still much more labile than the chloroacetyl esters placed at either the 7- or 10-positions (T1/2 values all >>72 hrs.).
For the more concentrated experiments, a 10 mg/ml solution of 2′,7-bis-CAC-DAP was allowed to stand at ambient temperature. […] For the weakly acidic studies, less than 4% breakdown of 2′,7-bis-CAC-DAP was observed over 48 hrs. and the calculated T1/2 was determined to be >1,000 hrs. […]

## CC(=O)O[C@@]12CO[C@@H]1C[C@H](OC(=O)CCl)[C@@]1(C)C(=O)[C@H](O)C3=C(C)[C@@H](OC(=O)[C@H](OC(=O)CCl)[C@@H](NC(=O)c4ccccc4)c4ccccc4)C[C@@](O)([C@@H](OC(=O)c4ccccc4)[C@H]21)C3(C)C [2′,7-bis-CAC-DAP, 2′,7-bis-Monochloroacetyl-10-deacetylpaclitaxel]
[1]; 80% ethanol/20% water, 56° C., 24 hours
  Conversion (loss of 2′-acyl group): Approximately 50%
[1]; 80% ethanol/20% water, ambient temp., 22 hours
  Conversion (loss of 2′-acyl group): Approximately 20%
[1]; about 1 mg/mL in methanol, ambient temperature
  Time to complete methanolysis of the 2′-adduct: 48 h
[2]; 1 mg/ml in methanol with 0.2% acetic acid, over 48 hrs.
  Breakdown: less than 4%
[2]; 20 mg/ml, for preparative HPLC
  Solvolysis in more concentrated methanolic solution: did not appear to undergo solvolysis
[2]; concentration of 1 mg/ml
  Stability in methanol solution: unstable

## COCC(=O)O[C@H]1C[C@H]2OC[C@@]2(OC(C)=O)[C@H]2[C@H](OC(=O)c3ccccc3)[C@]3(O)C[C@H](OC(=O)[C@H](OC(=O)COC)[C@@H](NC(=O)c4ccccc4)c4ccccc4)C(C)=C([C@@H](OC(C)=O)C(=O)[C@]12C)C3(C)C [2′,7-bis-MAC-PAC]
[1]; 30 mg in 60 ml methanol, 47° C., within 7 hours
  Conversion (loss of 2′-acyl group): ~90%

## CC(=O)OC12COC1CC(OC(=O)CCl)C1(C)C(=O)C(O)C3=C(C)C(OC(=O)C(O)C(NC(=O)c4ccccc4)c4ccccc4)CC(O)(C(OC(=O)c4ccccc4)C21)C3(C)C (centres unmarked) [Compound 7-CAC-DAP, 7-Monochloroacetyl-10-deactylpaclitaxel]
[2]; methanol, studied for up to 120 hrs.
  Breakdown to DAP: no significant breakdown
